According to US20230257758A1, “PLANT METABOLITE-MEDIATED INDUCTION OF BIOFILM FORMATION IN SOIL BACTERIA TO INCREASE BIOLOGICAL NITROGEN FIXATION AND PLANT NITROGEN ASSIMILATION” (The Regents of the University of California, priority 2020, published 2023):

Columns and labels:
[1] = system: Gluconacetobacter diazotrophicus; test: Microtiter-plate biofilm formation assay (crystal violet staining) with rice root exudates; format: cell-based; conditions: for Biofilm production (natural flavonoids, FIG. 7): exposed for 3 days to Oryza sativa root exudates supplemented with […] of the indicated compounds; for Biofilm formation in chemical screening (normalized to DMSO control): wild-type rice (Kitaake) root exudate 198 μL + 2 μL of 10 mM compound, 3 days, crystal violet staining; for Biofilm formation, comparison of flavones (FIG. 11): 3 days with Oryza sativa root exudates supplemented with indicated concentrations
Experimental: FIG. 3. […] Biofilm formation of Glucanoacetobacter diazotrophicus was assessed incubated with wild-type rice (Oryza sativa Kitaake) root exudates supplemented with 2 μl of each of 500 flavonoid and derivated compounds of a chemical library (FL-500, TimTec) and 700 compounds (natural and synthetic) (NPDepo library). Chemical screening was performed in a 96-well plate with each well containing: 198 μL of the Kitaake exudate and 2 μL of the 10 mM compound from the chemical libraries. An equal volume (2 μL) of DMSO was added to each well and served as the negative control. Gluconacetobacter diazotrophicus was added to the final OD600=0.01 to each well and incubated in a shaker at 150 rpm, 28° C. for 3 days before biofilm quantification by crystal violet staining. The value of each well in biofilm quantification was normalized to that of the DMSO control in each plate (DMSO=1). The heatmap was generated by the mean value of 3 biological replicates for each compound.
FIG. 7. Effect of natural flavonoids on biofilm formation in Glucanoacetobacter diazotrophicus. Induction of biofilm production in Gluconacetobacter diazotrophicus exposed to Oryza sativa root exudates supplemented with […] of the indicated compounds. Controls are exudates without compound and exudates with DMSO.
FIG. 11. Effects of Naringenin, Apigenin, Apigenin-7-Glucoside, and Luteolin on biofilm formation on Gluconacetobacter diazotrophicus. Values are the Mean±SD (n=6).
Any of a number of assays can be used to assess plants generated using the present methods, as well as to assess candidate plant molecules (e.g., other flavones) for their ability to upregulate biofilm production and assimilation of N2-fixing bacteria. For example, to confirm that the plants are exuding increased levels of the one or more flavones, root exudates from the plants can be isolated and the quantities and identities of the flavones determined, e.g., using mass spectrometry. In addition, the exudates (or other candidate biofilm-inducing molecules) can be incubated with N2-fixing bacteria, e.g., Glucanoacetobacter diazotrophicus, and the biofilm produced by the bacteria assessed. The biofilm can be quantified, e.g., by incubating the exudate (or candidate molecule or molecules) and bacteria in the wells of a microtiter plate, removing the cultures from the plate, washing the wells, adding a solution of crystal violet, rinsing and drying the plate, and then adding ethanol and measuring absorbance at, e.g., 540 nm. See, e.g. Example 1 and www.jove.com/video/2437/microtiter-dish-biofilm-formation-assay, the entire disclosure of which is herein incorporated by reference.
To assess the effect(s) of different chemicals on biofilm formation in N2-fixing bacteria, we used a published protocol (www.jove.com/video/2437/microtiter-dish-biofilm-formation-assay). Basically, bacteria were grown in a 96-well plate in a rich-nutrient medium at 28° C. The compound to be tested was added and the culture was grown overnight. Plant exudates and 2 μl of the compound were added to the well and the bacteria grown for 3 days under shaking (200 rpm). After 3 days, the planktonic bacterial cultures were discarded and the wells were thoroughly washed with water. A solution of 1% of crystal violet was added to each well of the plate and the plate shaken for 10-15 min at 200 rpm. The plates are rinsed 3-4 times with water (by submerging the plants in a tub of water), shaken vigorously and blotted on a stack of paper towels (to eliminate excess of cells and dye), the microliter plate was placed upside down and air dried. To quantify the amount of biofilm that adhered to the well walls, 200 μl of ethanol were added to each well, the plates shacked at 200 rpm, at 28° C. for 10-15 min. The absorbance of the solution was measured at 540 nm, using ethanol as a blank (FIG. 1). […]

[2] = system: Burkholderia vietnamensis; test: Luteolin-induced biofilm production in N2-fixing bacteria; format: cell-based
Experimental: (§1) FIG. 8. Induction of biofilm production in facultative N2-fixing bacteria.
(§2) FIGS. 9A-9C. Effect of luteolin on biofilm production in Azoarcus sp. CIB (FIG. 9A), Azoarcus communis (FIG. 9B), and Burkholderia vietnamensis (FIG. 9C).
(§3) The effects of luteolin on the induction of biofilm production was tested in a number of N2-fixing bacteria (FIG. 8). While Burkholderia vietnamensis and Azoarcus sp. […] Also the response of the bacteria to luteolin was not uniform; Azoarcus sp.

[3] = system: Azoarcus sp. CIB; test: as above; format: cell-based
Experimental: as §1, §2, §3

[4] = system: Azoarcus communis; test: as above; format: cell-based
Experimental: as §1, §2, §3

[5] = system: Azospirillum sp. 8510; test: as above; format: cell-based
Experimental: as §1, §3

[6] = system: Herbaspirillum seropedicae; test: as above; format: cell-based
Experimental: as §1, §3

[7] = system: Glucanoacetobacter; test: Biofilm formation in suspension of double-labelled (mCherry, gumDpro::GFP) Glucanoacetobacter; format: cell-based, Glucanoacetobacter diazotrophicus; conditions: addition of compound to a suspension of Glucanoacetobacter (FIGS. 5A, 5B)
Description: (§4) FIGS. 5A-5C. Effects of the addition of luteolin or apigenin to biofilm formation in Glucanoacetobacter diazotrophicus. FIG. 5A: Effects of the addition of luteolin to biofilm formation in a Glucanoacetobacter diazotrophicus suspension.
The activity of the exudate or of candidate molecules can also be assessed in vivo, e.g., by using transgenic N2-fixing bacteria such as Glucanoacetobacter diazotrophicus that constitutively express a label such as mCherry. The bacteria can also express labeled components of biofilms, e.g., in bacteria transformed with gumDpro::GFP. The double labeling in such bacteria allows the visualization of the bacteria and, independently, the development of biofilm in the presence or absence of the exudate or candidate molecule.
Our results indicated clustering among common moieties, particularly among heterooctacyclic compounds (e.g., Staurosporine) and […] (e.g., luteolin, apigenin) and anthraquinones (e.g. 2H03 and 4G03—Papaverine). (FIG. 4). […] Therefore we assessed the effects of luteolin and apigenin in vivo. First we assessed the formation of chemical-induced formation of biofilm in bacterial cultures. For this, we generated transgenic Glucanoacetobacter constitutively expressing mCherry (transformed with pSEVAGeng-Luc-mCherry) in order to visualize mCherry fluorescent bacteria. Then we transformed the mCherry expressing bacteria with gumDpro::GFP. GumD encodes for components of the bacterial Exopolysacharides (EPS)] in order to visualize GFP-labelled biofilms. Thus the double labelling allowed as to follow the development of biofilm while visualizing the bacteria.

[8] = system: Kitaake rice plants, incubated with Glucanoacetobacter; test: Assimilation of 15N2-derived nitrogen by rice plants incubated with bacteria; format: in vivo, Oryza sativa Kitaake; conditions: rice seedlings in soil with bacteria, 15N2 gas added; versus DMSO control
Experimental: (§5) FIGS. 12A-12C. Effects of flavones (Naringenin, Apigenin, Apigenin-7-Glucoside) on bacterium N2-fixation. FIG. 12A: Activity was assessed by measuring the conversion of acetylene to ethylene by Gas Chromatography. FIG. 12B: Assimilation of Nitrogen by Kitaake rice plants, incubated with Glucanoacetobacter in the absence (DMSO) or presence of Apigenin. Nitrogen assimilation was assessed by feeding ^15N2 and measuring assimilated inorganic ^15N in leaf tissues after 2 weeks, using Mass Spectroscopy. FIG. 12C: Kitaake rice roots incubated with Glucanoacetobacter in the absence (DMSO) or presence of Apigenin.
The genetically modified plants themselves can also be assessed in any of a number of ways. For example, plants can be grown in the presence of fluorescently labeled N2-fixing bacteria, and the adherence of the bacteria to the plant root hairs, either attached to the root surface or present inside the plant tissues, can be determined. The plants can also be assessed by determining the number of tillers and/or the seed yield. In some embodiments, the assimilation of N2 fixed by bacteria in the soil is assessed by, e.g., growing the plants in the presence of ^15N2 gas, and then measuring the level of ^15N assimilated in the plant leaves, e.g., using Mass spectroscopy. […]

[9] = system: Glucanoacetobacter diazotrophicus; test: Acetylene reduction assay (ARA) for bacterial N2 fixation; format: cell-based; conditions: Kitaake rice root exudates and 100 μM, 3 days at 28° C., then acetylene 4 days
Experimental: as §4
as §5, with “FIG. 12C: Kitaake rice roots incubated with Glucanoacetobacter in the absence (DMSO) or presence of Apigenin.” left out
The N2-fixing activity of the bacteria can be assessed, e.g., using an acetylene reduction assay (ARA), in which bacteria are cultured in the presence of acetylene gas, and the conversion of acetylene to ethylene measured by, e.g., gas chromatography.
To assess the effects of the flavones on bacteria N2 fixation, we used the acetylene reduction assay (ARA), where gas acetylene is added, and the resulting ethylene is measured by Gas Chromatography. […] Ten % of the air in the tube was replaced by acetylene, the cells incubated for 4 days and ethylene was measured by gas chromatography (FIG. 12A). […]

[10] = system: Kitaake rice roots incubated with Glucanoacetobacter; test: Microscopy of adherence of fluorescent bacteria to rice roots; format: in vivo, Oryza sativa Kitaake; conditions: versus DMSO
Experimental: as §5
The genetically modified plants themselves can also be assessed in any of a number of ways. For example, plants can be grown in the presence of fluorescently labeled N2-fixing bacteria, and the adherence of the bacteria to the plant root hairs, either attached to the root surface or present inside the plant tissues, can be determined. The plants can also be assessed by determining the number of tillers and/or the seed yield. In some embodiments, the assimilation of N2 fixed by bacteria in the soil is assessed by, e.g., growing the plants in the presence of ^15N2 gas, and then measuring the level of ^15N assimilated in the plant leaves, e.g., using Mass spectroscopy.
No bacteria was seen on the control treatments. […]

## O=C1C[C@@H](c2ccc(O)c(O)c2)Oc2cc(O)cc(O)c21 [Eriodictyol]
[1]
  Biofilm production (natural flavonoids, FIG. 7): Only luteolin induced a significant increase

## O=c1c(O)c(-c2cc(O)c(O)c(O)c2)oc2cc(O)cc(O)c12 [Myricetin]
[1]
  Biofilm production (natural flavonoids, FIG. 7): Only luteolin induced a significant increase

## O=c1c(O)c(-c2ccc(O)c(O)c2)oc2cc(O)cc(O)c12 [Quercetin]
[1]
  Biofilm production (natural flavonoids, FIG. 7): Only luteolin induced a significant increase

## O=c1cc(-c2ccc(O)c(O)c2)oc2cc(O)cc(O)c12 [luteolin]
[1]
  Biofilm production (natural flavonoids, FIG. 7): induced a significant increase in biofilm production
  Biofilm formation in chemical screening (normalized to DMSO control): biofilm inducers
[2]
  Luteolin-induced biofilm synthesis: displayed a luteolin-induced biofilm synthesis
[3]; Azoarcus sp. CIB
  Luteolin-induced biofilm synthesis: displayed a luteolin-induced biofilm synthesis
[3]; Azoarcus sp. CIB versus Burkholderia vietnamensis
  Response to luteolin relative to Burkholderia vietnamensis: lesser response to luteolin than Burkholderia vietnamensis
[4]
  Luteolin-induced biofilm production: did not show an enhanced biofilm production
[5]
  Luteolin-induced biofilm production: did not show an enhanced biofilm production
[6]
  Luteolin-induced biofilm production: did not show an enhanced biofilm production
[7]
  Induction of biofilm formation in bacterial suspension: induction of biofilm formation by increasing amounts of luteolin

## O=c1cc(-c2ccc(O)cc2)oc2cc(O)cc(O)c12 [apigenin]
[1]
  Biofilm formation, comparison of flavones (FIG. 11): strongest biofilm induction
  Biofilm formation in chemical screening (normalized to DMSO control): biofilm inducers
[1]; listed as Apigenin
  Biofilm formation, comparison of flavones (FIG. 11): induced a larger biofilm production than Luteolin
[8]
  15N assimilated in the leaves: significant increase in ^15N into Nitrogen compounds
[9]
  Nitrogen fixation (conversion of acetylene to ethylene, gas chromatography): promote nitrogen fixation
[10]
  Adherence of bacteria to the root surface and inside the root tissue: Adherence of bacteria to the root surface and inside the root tissue can be seen
[7]
  Induction of biofilm formation in bacterial suspension: showed the induction of biofilm formation

## O=C1C[C@@H](c2ccc(O)cc2)Oc2cc(O)cc(O)c21 [Naringenin]
[1]
  Biofilm production (natural flavonoids, FIG. 7): Only luteolin induced a significant increase

## O=c1cc(-c2ccc(O)cc2)oc2cc(O[C@@H]3O[C@H](CO)[C@@H](O)[C@H](O)[C@H]3O)cc(O)c12 [apigenin-7-O-glucoside]
[1]
  Biofilm formation, comparison of flavones (FIG. 11): strongest biofilm induction
[9]
  Nitrogen fixation (conversion of acetylene to ethylene, gas chromatography): promote nitrogen fixation
[7]
  Induction of biofilm formation in bacterial suspension: showed the induction of biofilm formation
